Reference: patent US10100284B2, “Method for inducing differentiation of pluripotent stem cells into endodermal cells” (TOAGOSEI CO., LTD., priority 2013, dated 2018)
Where no end group is shown, it is not given here.

Legend:
[1] = system: iPS cells (clone name: 201B2 or 201B7); assay: ALB ELISA of iPS cell culture supernatant; assay type: cell-based, human; conditions: peptide concentration in medium 6 μM; as culture time increased; FIG. 4
Experimental: The stem cell differentiation-inducing activity of the differentiation-inducing synthetic peptide (Sample 1) obtained in Example 1 was evaluated by quantifying changes over time in the expressed amounts (typically extracellular secretion) of AFP and ALB, which are proteins known as markers of differentiation into endodermal cells. It is known that AFP is expressed in cells that have differentiated into liver precursor cells among the endodermal cells, while ALB is expressed in cells that have differentiated sufficiently to function effectively as hepatocytes (that is, hepatocytes or hepatocyte-like cells). […]
50 μL of the accessory Chromogen Substrate Solution (coloring reagent) was then added per well, and left standing for 15 minutes in the dark. […] Absorbance A450 at 450 nm and absorbance A550 at 550 nm were then measured with a spectrophotometer in the reaction liquid in the wells.
Absorbance values A(450-550) were calculated by subtracting the absorbance A550 from the absorbance A450 obtained by the previous measurement (that is, absorbance A(450-550)=[…]) for each of the samples from the AFP evaluation test group and ALB evaluation test group. […]

[2] = system: iPS cells (clone name: 201B2 or 201B7); assay: Quantitative RT-PCR of stem cell marker gene and germ layer differentiation marker genes in iPS cells; assay type: cell-based, human; conditions: peptide concentration 6.0 μM, FIG. 3
Experimental: The stem cell differentiation-inducing activity of a differentiation-inducing synthetic peptide (Sample 1) obtained in Example 1 above was evaluated by measuring changes over time in the expressed amounts of a stem cell differentiation marker gene (that is, a stem cell marker gene) and differentiation marker genes for the three kinds of germ layer cells. iPS cells that had been cultured and passaged in vitro were used as the test cells. The specifics of the evaluation test were as follows.
iPS cells (clone name: 201B2 or 201B7) were cultured as in Example 2 except that Sample 1 that had been prepared with DMSO/EtOH=1/1 to a peptide concentration of 4 mM was added 1.5 μL/well (that is to a peptide concentration of 6.0 μM in the well). A peptide-free group was also established as a comparative example. The medium was replaced and peptide was added two days, four days and six days after initiation of iPS cell culture. […]
25 to […] of purified RNA was supplied to quantitative RT-PCR, and the expressed amounts of a stem cell marker gene and differentiation marker genes for the three kinds of germ layer cells were quantified. […] A One Step SYBR® PrimeScript® PLUS RT-PCR Kit (TaKaRa Bio) was used for the quantitative RT-PCR, in accordance with the attached manual. […] The quantitative RT-PCR reaction consisted of 5 minutes of incubation at 42° C. to perform reverse transcription, followed by 10 seconds of incubation at 95° C., and 40 cycles consisting of 5 seconds at 95° and 31 seconds at 63° C.
The quantitative results for expression of a stem cell marker gene and differentiation marker genes for the three kinds of germ layer cells are shown in FIG. 3. The expressed amounts of these genes were first corrected by the expressed amounts of the GAPDH gene in each test group, and the relative expressed amount of the gene in the Sample 1 group relative to the expressed amount of the gene in the peptide-free group was determined by the ΔΔCt method.

## LLLLLLVGLTAPAGKKRTLRKNDRKKR-CONH2 (LLLLLLVGLTAPAGKKRTLRKNDRKKR-NH2) [Sample 1]
[1]
  ALB level of the culture supernatant in comparison with peptide-free group with the same culture time: increased dramatically
[2]; 20th day after initiation of culture
  increase in the relative expressed amount of the AFP gene: particularly dramatic
[2]
  expression timing of endodermal cell marker genes SOX17, GATA4 and FOXA2: sooner than the AFP gene
[2]; beginning 13 days after initiation of culture
  relative expressed amount of the AFP gene (endodermal marker gene) relative to peptide-free group (ΔΔCt, GAPDH corrected): increased much more than the relative expressed amounts of the other genes
